# Tests used:
# MCAO rats = test: Nissl staining of hippocampal neurons, MCAO; type: in vivo, rat; conditions: hippocampus, cerebral ischemia 24 hours
# Method: After cerebral ischemia for 24 hours, the rats were anesthetized by intraperitoneal injection of 10% Chloral hydrate. After perfused via heart with heparinized normal saline for 10 min and 4% paraformaldehyde for 30 min, the brain tissue was taken out and moved in 4% paraformaldehyde to fix, then cut into coronal sections (6 μm) by a frozen section machine, and one section was taken out in every 20 sections to stain. The stained sections were expanded on a slide glass treated by polylysine, and then preserved in a refrigerator at −40° C.
# Nissel staining: (1) the frozen section was taken out from the refrigerator and dried in room temperature; (2) put into acetone to fix for 30 min and washed by PBS for 3 times, 3 min every time; (3) dipped for 20-30 min in toluidine blue dye and then washed by water for 15 min; (4) dehydrated by ethanol in gradient manner and vitrified by xylene and mounted by a neutral gum; (5) observed under a light microscope and photographed for analysis; (6) 4 frozen sections in roughly same position for each rat were taken out and 5 vision fields in hippocampus for each section were observed under 200× light microscope (totally 20 visions per rat). The cells in vision fields were counted. The averages of ratios of the numbers in the administration groups to the number in the model group were calculated for statistical analysis.
# plasma fibrinogen = test: Plasma fibrinogen assay (ELISA) in SHRSP; type: in vivo, rat; parameters: Plasma fibrinogen: unit not given here; conditions: SHRSP rats
# Method: The mixture was centrifuged for 15 min at 3000 rpm and plasma fibrinogen in liquid supernatant was determined by euzymelinked immunosorbent assay (ELISA).
# plasma ET-1 = test: Plasma ET-1 (radioimmunoassay) in SHRSP; type: in vivo, rat; parameters: ET-1 content: unit not given here; conditions: SHRSP rats; for ET-1 content: plasma
# Method: 5) Blood of 2 mL was dropped rapidly in a cuvette with 30 μL 7.5% EDTA-2Na and 40 μL aprotinin and mixed. After centrifuged for 5 min at 3000 rpm, plasma ET-1 in liquid supernatant was determined by isotope radioimmunoassay.
# tMCAO rats [1] = test: Neurobehavioral examination (Bederson's score), tMCAO time window study; type: in vivo, rat; conditions: 2 hours ischemia and 24 hours reperfusion
# Method: (§1) 1. In the test, transient middle cerebral artery occlusion (tMCAO) model of rats was adopted. The reperfusion was performed after focal cerebral ischemia for 2 hours so as to inspect therapeutic time window of pinocembrin after focal cerebral ischemia. The rats were administered by pinocembrin racemate (1 mg/kg, 5 mg/kg, intravenous injection) after reperfusion 1 hour, 4 hours and 6 hours (i.e., ischemia 3 hour, 6 hours and 8 hours). (R)-pinocembrin and (S)-pinocembrin (1 mg/kg, 5 mg/kg, intravenous injection) were administered after reperfusion 1 hour and 4 hours (i.e., ischemia 3 hour and 6 hours). The therapeutic time windows of these drugs in focal cerebral ischemia were assessed by studying their effects to neurological symptom scores, infarct sizes and brain water contents during 24 hours after tMCAO.
# The CCA and ICA were clipped with artery clips. Two No. 0 surgery lines were litigated on the ECA distal end with 2-3 mm spacing and then the vascular between the two surgery lines was cut. The distal end of ECA was pulled until it formed a straight line with the ICA. An incision was cut on ECA and a nylon line was inserted through ECA into ICA. After the artery clip was loosen, the nylon line was pushed on into the brain through ICA and inserted in depth of 18.5±0.5 mm when resistance was felt slightly. The nylon line reached a smaller anterior cerebral artery through the beginning of MCA and then the blood flow obstruction in right MCA was established. the animals were kept in anesthesia during the obstruction. After 2 hours of obstruction, the nylon line was gently pulled out to ECA stub to form reperfusion. During the surgery process, the animals were irradiated by table lamp of 100 W to maintain the body temperature. The room temperature was kept in range of 23-25° C.
# (§2) 2.4 Experimental Grouping and Administration • Sham operation group (intravenous injection of normal saline after 3 hours of ischemia); • Model group (intravenous injection of 50 mg/kg hydroxypropyl β-cyclodextrin after 3 hours of ischemia); • Nimodipine group (1 mg/kg, administered after 3 hours of ischemia); • Pinocembrin racemate group (1 mg/kg, 5 mg/kg, administered after 3, 6 and 8 hours of ischemia); • (R)-pinocembrin group (1 mg/kg, 5 mg/kg, administered after 3 and 6 hours of ischemia); • (S)-pinocembrin group (1 mg/kg, 5 mg/kg, administered after 3 and 6 hours of ischemia).
# (§3) First administration was performed by intravenous injection, and intraperitoneal injection was carried out once 12 hours later with a dose 1.5 times of that for intravenous injection.
# Neurobehavioral examination was performed respectively when the animals were awake after surgery and before the animals were put to death. Bederson's score was adopted (see details in Example 2, 1. Neurobehavioral Examination).
# tMCAO rats [2] = test: Infarct volume (TTC), tMCAO time window study; type: in vivo, rat; conditions: 2 hours ischemia and 24 hours reperfusion
# Method: as §1, §2, §3
# After neurobehavioral scoring, the rats were put to death by decollation and their brain tissues were taken out quickly and put into a refrigerator of −20° C. 10 min later, the brain tissues were moved to an environment of room temperature. After the olfactory bulb, cerebellar and lower brain stem were resected, the brain tissue was cut into six continuous coronal slices with an interval of 2 mm. Then the brain slices were quickly put into 5 ml solution containing 2% TTC and incubated at a constant temperature of 37° C. and in a condition of darkness for 30 min. During the time, the brain slices were tipped every 5 min. […] Every group of brain slices were put in order and photographed. The photographs were processed by an image analysis system and the infarct areas in each slice were calculated. The infarct volume of each slice was calculated via multiplying the infarct area by thickness of slice (2 mm), and the infarct volume was the sum of infarct volumes of all slices. The infarct volume percentage was expressed as: sick-side infarct volume/total sick-side brain volume.
# tMCAO rats [3] = test: Brain water content, tMCAO time window study; type: in vivo, rat; conditions: 2 hours ischemia and 24 hours reperfusion
# Method: as §1, §2, §3
# The wet weight of each animal's brain was weighted before sliced. After staining, the brain slices were dried at 105° C. for 24 hours, and the dry weight of each animal's brain was weighted. The brain water contents of animals of various groups were compared. Brain water content=(brain wet weight−brain dry weight)/brain wet weight×100%.
# tMCAO rats [4] = test: Therapeutic time window in focal cerebral ischemia-reperfusion injured rats; type: in vivo, rat; conditions: tMCAO rats, 1 mg/kg, 5 mg/kg
# Method: as §1, §2, §3
# SD rats = test: Acute toxicity, single intravenous injection; conditions: single intravenous injection in SD rats
# in vivo = conditions: SD, rat, iv
# [5] = antihistamine, oral administration; cited from earlier work
# [6] = initially injected after 3 hours of ischemia
# [7] = initially injected after 6 hours of ischemia
Compound,Plasma fibrinogen (plasma fibrinogen; 3 mg/kg),Plasma fibrinogen (plasma fibrinogen; 10 mg/kg),Plasma fibrinogen (plasma fibrinogen; 30 mg/kg),ET-1 content (plasma ET-1; 3 mg/kg),ET-1 content (plasma ET-1; 10 mg/kg),ET-1 content (plasma ET-1; 30 mg/kg),"Neurobehavioral value (tMCAO rats [1]; 1 mg/kg, 3 h)","Neurobehavioral value (tMCAO rats [1]; 1 mg/kg, 6 h)","Neurobehavioral value (tMCAO rats [1]; 5 mg/kg, 3 h)","Neurobehavioral value (tMCAO rats [1]; 5 mg/kg, 6 h)","Infarct percentage (%) (tMCAO rats [2]; 1 mg/kg, 3 h)","Infarct percentage (%) (tMCAO rats [2]; 1 mg/kg, 6 h)","Infarct percentage (%) (tMCAO rats [2]; 5 mg/kg, 3 h)","Infarct percentage (%) (tMCAO rats [2]; 5 mg/kg, 6 h)","Brain water content (%) (tMCAO rats [3]; 1 mg/kg, 3 h)","Brain water content (%) (tMCAO rats [3]; 1 mg/kg, 6 h)","Brain water content (%) (tMCAO rats [3]; 5 mg/kg, 3 h)","Brain water content (%) (tMCAO rats [3]; 5 mg/kg, 6 h)","effect on neurobehavioral injury, infarct volume and cerebral edema (tMCAO rats [4]; [6])","effect on neurobehavioral injury, infarct volume and cerebral edema (tMCAO rats [4]; [7])",other results
pinocembrin racemate,–,–,–,–,–,–,–,–,–,–,–,–,–,–,–,–,–,–,–,–,increase of nerve cells in comparison with the model group (MCAO rats; 3 mg/kg): 11.5±8.9%; increase of nerve cells in comparison with the model group (MCAO rats; 10 mg/kg): 36.8±4.9%; increase of nerve cells in comparison with the model group (MCAO rats; 30 mg/kg): 51.7±6.6%
O=C1C[C@H](c2ccccc2)Oc2cc(O)cc(O)c21 [(R)-pinocembrin],2.99 ± 0.13,2.83 ± 0.18,2.74 ± 0.47,235.4 ± 35.2,228.4 ± 16.9,198.1 ± 35.4,1.42 ± 0.82,1.86 ± 0.57,1.39 ± 0.72,1.83 ± 0.49,15.69 ± 7.82 %,26.33 ± 12.67%,15.66 ± 7.88 %,25.89 ± 13.57%,82.18 ± 0.98 %,83.36 ± 1.12%,81.20 ± 1.03 %,83.77 ± 1.07%,significant effects,not effective,LD50 (SD rats): 347.8 (257.4˜466.3) mg/kg
"O=C1C[C@@H](c2ccccc2)Oc2cc(O)cc(O)c21 [(S)-pinocembrin, reference compound]",3.00 ± 0.32,2.99 ± 0.61,2.81 ± 0.57,243 ± 19.5,240 ± 16.8,240.8 ± 24.3,1.29 ± 0.72,1.79 ± 0.63,1.59 ± 0.77,1.77 ± 0.70,15.32 ± 7.98 %,28.06 ± 12.98%,15.78 ± 7.28 %,25.97 ± 12.75%,81.95 ± 1.00 %,82.96 ± 0.98%,81.87 ± 1.12 %,83.37 ± 1.27%,significant effects,not effective,effect on content of plasma fibrinogen (plasma fibrinogen; compared with the model group): no activity; effect on plasma ET-1 content (plasma ET-1; compared with the model group): no activity; LD50 (in vivo): 375 mg/kg
"CC(CN1c2ccccc2Sc2cccnc21)N(C)C (racemic) [isothipendyl racemate, isothipendyl]",–,–,–,–,–,–,–,–,–,–,–,–,–,–,–,–,–,–,–,–,efficacy relative to (+)-isomer [5]: 2.5 times; efficacy relative to (−)-isomer [5]: 1.4 times
